Here are results for five compounds from ChEMBL document CHEMBL6092180 (Eur J Med Chem, 2024).

Structures are written as SMILES. In brackets after ≈: the same amount, converted by molar mass. Where only a bound is given, the exact number is not on record here.

Common to all, as to assay type: functional
Assay [1] has as its system Candida albicans. The experiment in a line: Antifungal activity against Candida albicans SC5314 assessed as inhibition of fungal growth by CLSI M27-A3 guidelines based method.
The subject of assay [2] is Candida albicans. The experiment in a line: Antifungal activity against Candida albicans GIM 2.194 assessed as inhibition of fungal growth by CLSI M27-A3 guidelines based method.
The test system of a further assay is Candida tropicalis. The experiment in a line: Antifungal activity against Candida tropicalis GIM 2.183 assessed as inhibition of fungal growth by CLSI M27-A3 guidelines based method.
A further assay relates to Candida parapsilosis. The experiment in a line: Antifungal activity against Candida parapsilosis GIM 2.190 assessed as inhibition of fungal growth by CLSI M27-A3 guidelines based method. The settings on record: Lodderomyces parapsilosis.
The next assay deals with Nakaseomyces glabratus. The experiment in a line: Antifungal activity against Candida glabrata assessed as inhibition of fungal growth by CLSI M27-A3 guidelines based method.
A further assay deals with Pichia kudriavzevii. The experiment in a line: Antifungal activity against Candida krusei GIM 2.1 assessed as inhibition of fungal growth by CLSI M27-A3 guidelines based method.
The test system of another assay is Cryptococcus neoformans. The experiment in a line: Antifungal activity against Cryptococcus neoformans CGMCC 2.3161 assessed as inhibition of fungal growth by CLSI M27-A3 guidelines based method.
The test system of the next assay is Aspergillus fumigatus. The experiment in a line: Antifungal activity against Aspergillus fumigatus cgmcc 3.7795 assessed as inhibition of fungal growth by CLSI M27-A3 guidelines based method.
The subject of assay [3] is Candida albicans. The experiment in a line: Antifungal activity against fluconazole-resistant Candida albicans CaR assessed as inhibition of fungal growth by CLSI M27-A3 guidelines based method.
The subject of assay [4] is Candida albicans. The experiment in a line: Antifungal activity against fluconazole and iodiconazole resistant Candida albicans clinical isolate 17# assessed as inhibition of fungal growth by CLSI M27-A3 guidelines based method.
The subject of assay [5] is Candida albicans. The experiment in a line: Antifungal activity against fluconazole-resistant Candida albicans clinical isolate 901 assessed as inhibition of fungal growth by CLSI M27-A3 guidelines based method.
Assay [6] deals with Candida albicans. The experiment in a line: Antifungal activity against fluconazole-resistant Candida albicans clinical isolate 904 assessed as inhibition of fungal growth by CLSI M27-A3 guidelines based method.
In assay [7] the test system is Candida albicans. The experiment in a line: Antifungal activity against fluconazole-resistant Candida albicans clinical isolate 632 assessed as inhibition of fungal growth by CLSI M27-A3 guidelines based method.
Assay [8] deals with Candida albicans. The experiment in a line: Antifungal activity against fluconazole-resistant Candida albicans clinical isolate 100 assessed as inhibition of fungal growth by CLSI M27-A3 guidelines based method.
Assay [9] concerns Candida albicans. The experiment in a line: Antifungal activity against fluconazole-resistant Candida albicans clinical isolate 103 assessed as inhibition of fungal growth by CLSI M27-A3 guidelines based method.
For assay [10], the system named is Candida albicans. The experiment in a line: Antifungal activity against fluconazole-resistant Candida albicans clinical isolate 311 assessed as inhibition of fungal growth by CLSI M27-A3 guidelines based method.

`C[C@@H](N(C)Cc1ccc(C#Cc2cc(F)c(F)cc2F)cc1)[C@](O)(Cn1cncn1)c1ccc(F)cc1F`: the MIC80 (commonly the lowest concentration that inhibits either 80% of growth or 80% of the strains tested, depending on the study) in the assay on Candida albicans [1] stood at 0.013 µg/mL (≈ 0.0247 µM); in the assay on Candida albicans [2], 0.025 µg/mL (≈ 0.0475 µM); in the assay with Candida tropicalis it was 6 ng/mL (≈ 0.0114 µM); with Candida parapsilosis, 6 ng/mL (≈ 0.0114 µM); with Nakaseomyces glabratus it was 0.05 µg/mL (≈ 0.095 µM); in the assay with Pichia kudriavzevii, 0.05 µg/mL (≈ 0.095 µM). The MIC80 in the assay with Cryptococcus neoformans amounted to 0.025 µg/mL (≈ 0.0475 µM); with Aspergillus fumigatus it was 0.2 µg/mL (≈ 0.38 µM); in the assay with Candida albicans [3], 1 µg/mL (≈ 1.9 µM); in the assay with Candida albicans [4], 2 µg/mL (≈ 3.8 µM); with Candida albicans [5] it was 8 µg/mL (≈ 15.2 µM); in the assay on Candida albicans [6], 32 µg/mL (≈ 60.8 µM). In addition, the MIC80 came to 4 µg/mL (≈ 7.6 µM) in the assay on Candida albicans [7], 8 µg/mL (≈ 15.2 µM) in the assay on Candida albicans [8], 8 µg/mL (≈ 15.2 µM) with Candida albicans [9] and 16 µg/mL (≈ 30.4 µM) in the assay on Candida albicans [10].

As to `CC(=O)c1ccc(C#Cc2ccc(CN(C)[C@H](C)[C@](O)(Cn3cncn3)c3ccc(F)cc3F)cc2)cc1`, the MIC80 in the assay on Candida albicans [1] worked out at 0.013 µg/mL (≈ 0.0253 µM); with Candida albicans [2], 0.013 µg/mL (≈ 0.0253 µM); with Candida tropicalis it was 6 ng/mL (≈ 0.0117 µM); in the assay on Candida parapsilosis it was 6 ng/mL (≈ 0.0117 µM); in the assay on Nakaseomyces glabratus, 0.01 µg/mL (≈ 0.0194 µM); in the assay with Pichia kudriavzevii, 0.01 µg/mL (≈ 0.0194 µM). The MIC80 in the assay with Cryptococcus neoformans came to 0.013 µg/mL (≈ 0.0253 µM); with Aspergillus fumigatus it was 0.1 µg/mL (≈ 0.194 µM); in the assay with Candida albicans [3], 0.25 µg/mL (≈ 0.486 µM); in the assay with Candida albicans [4] it was 0.5 µg/mL (≈ 0.972 µM); with Candida albicans [5], 8 µg/mL (≈ 15.5 µM); in the assay on Candida albicans [6] it was 16 µg/mL (≈ 31.1 µM). Further, the MIC80 in the assay with Candida albicans [7] came to 4 µg/mL (≈ 7.77 µM); in the assay with Candida albicans [8] it was 16 µg/mL (≈ 31.1 µM); in the assay with Candida albicans [9], 16 µg/mL (≈ 31.1 µM); in the assay on Candida albicans [10], 16 µg/mL (≈ 31.1 µM).

As for `C[C@@H](N(C)Cc1ccc(C#Cc2ccc(Br)cc2)cc1)[C@](O)(Cn1cncn1)c1ccc(F)cc1F`, the MIC80 was found to be 0.025 µg/mL (≈ 0.0453 µM) in the assay on Candida albicans [1]; 0.025 µg/mL (≈ 0.0453 µM) with Candida albicans [2]; 6 ng/mL (≈ 0.0109 µM) in the assay with Candida tropicalis; 6 ng/mL (≈ 0.0109 µM) in the assay with Candida parapsilosis; 0.05 µg/mL (≈ 0.0907 µM) in the assay with Nakaseomyces glabratus; 0.03 µg/mL (≈ 0.0544 µM) with Pichia kudriavzevii. Further, the MIC80 with Cryptococcus neoformans worked out at 0.025 µg/mL (≈ 0.0453 µM); in the assay with Aspergillus fumigatus it was 0.1 µg/mL (≈ 0.181 µM); in the assay on Candida albicans [3], 0.25 µg/mL (≈ 0.453 µM); in the assay on Candida albicans [4] it was 0.5 µg/mL (≈ 0.907 µM); in the assay on Candida albicans [5] it was 8 µg/mL (≈ 14.5 µM); in the assay with Candida albicans [6] it was 16 µg/mL (≈ 29 µM). Moreover, the MIC80 with Candida albicans [7] was 8 µg/mL (≈ 14.5 µM); with Candida albicans [8], 8 µg/mL (≈ 14.5 µM); in the assay on Candida albicans [9], 8 µg/mL (≈ 14.5 µM); in the assay on Candida albicans [10], greater than 64 µg/mL.

On to `C[C@@H](N(C)Cc1ccc(C#Cc2ccc(Cl)cc2)cc1)[C@](O)(Cn1cncn1)c1ccc(F)cc1F`, for which the MIC80 in the assay on Candida albicans [1] worked out at 0.025 µg/mL (≈ 0.0493 µM); in the assay on Candida albicans [2] it was 0.025 µg/mL (≈ 0.0493 µM); in the assay on Candida tropicalis it was 6 ng/mL (≈ 0.0118 µM); with Candida parapsilosis, 6 ng/mL (≈ 0.0118 µM); in the assay on Nakaseomyces glabratus, 0.03 µg/mL (≈ 0.0592 µM); with Pichia kudriavzevii it was 0.01 µg/mL (≈ 0.0197 µM). For the same compound, the MIC80 in the assay with Cryptococcus neoformans was 0.025 µg/mL (≈ 0.0493 µM); in the assay with Aspergillus fumigatus it was 0.1 µg/mL (≈ 0.197 µM); with Candida albicans [3], 0.25 µg/mL (≈ 0.493 µM); in the assay on Candida albicans [4], 0.5 µg/mL (≈ 0.986 µM); in the assay on Candida albicans [5] it was 8 µg/mL (≈ 15.8 µM); in the assay on Candida albicans [6], 16 µg/mL (≈ 31.6 µM). Besides, the MIC80 in the assay with Candida albicans [7] was determined as 8 µg/mL (≈ 15.8 µM); in the assay with Candida albicans [8] it was 8 µg/mL (≈ 15.8 µM); with Candida albicans [9], 16 µg/mL (≈ 31.6 µM); in the assay on Candida albicans [10], 32 µg/mL (≈ 63.1 µM).

On to `C[C@@H](N(C)Cc1ccc(C#Cc2ccc(I)cc2)cc1)[C@](O)(Cn1cncn1)c1ccc(F)cc1F`, for which the MIC80 in the assay on Candida albicans [1] turned out to be 0.05 µg/mL (≈ 0.0836 µM); in the assay on Candida albicans [2], 0.05 µg/mL (≈ 0.0836 µM); in the assay with Candida tropicalis it was 13 ng/mL (≈ 0.0217 µM); with Candida parapsilosis, 13 ng/mL (≈ 0.0217 µM); in the assay with Nakaseomyces glabratus, 0.03 µg/mL (≈ 0.0501 µM); with Pichia kudriavzevii, 0.05 µg/mL (≈ 0.0836 µM). Further, the MIC80 in the assay with Cryptococcus neoformans is 0.05 µg/mL (≈ 0.0836 µM); in the assay with Aspergillus fumigatus, 0.2 µg/mL (≈ 0.334 µM); in the assay on Candida albicans [3] it was 16 µg/mL (≈ 26.7 µM); in the assay on Candida albicans [4], 16 µg/mL (≈ 26.7 µM); in the assay with Candida albicans [5], 16 µg/mL (≈ 26.7 µM); with Candida albicans [6] it was greater than 64 µg/mL. The MIC80 in the assay on Candida albicans [7] is 16 µg/mL (≈ 26.7 µM); in the assay on Candida albicans [8] it was 32 µg/mL (≈ 53.5 µM); in the assay on Candida albicans [9], 32 µg/mL (≈ 53.5 µM); with Candida albicans [10], greater than 64 µg/mL.
